The values that follow are results of earlier work, collected in patent US20140322314A1, “Omega-3 Fatty Acid Formulations for Use as Pharmaceutical Treatment” (Matinas BioPharma, Inc., priority 2013, published 2014).

The conditions of the data set: in vivo.

In the case of `CC(C)n1c(/C=C/C(O)CC(O)CC(=O)O)c(-c2ccc(F)cc2)c2ccccc21` (centres unmarked) [fluvastatin], the bioavailable entry is “approximately 24%”. On to `CC[C@H](C)C(=O)O[C@H]1C[C@@H](C)C=C2C=C[C@H](C)[C@H](CC[C@@H]3C[C@@H](O)CC(=O)O3)[C@H]21` [lovastatin], for which the absorbed at rates entry was “about 30%”.
